Test results published in US20230211004A1, “TETANUS TOXOID AND CRM-BASED PEPTIDES AND METHODS OF USE” (UNIVERSITY OF GEORGIA RESEARCH FOUNDATION, INC., priority 2019, published 2023).
“Also recorded” adds a separate entry of the source.

Tests used:
[1] = tested on: IFN-γ production by CD4+ T cell enriched donor PBMCs; format: cell-based, human
[2] = tested on: CD4+ T cells; format: cell-based, human
[3] = tested on: MHCII molecules (HLA-DR, HLA-DP, HLA-DQ) of Raji B cells; format: binding, human

| Sequence | Donor 4 IGN-γ [1] | CD4+ T cell proliferation compared to basal growth rate [2] | Donor 3 CFSE [2] | Donor 4 CFSE [2] | T cell response against previously published TT epitopes [2] | Donor 1 IFN-γ [1] | Donor 2 IFN-γ [1] | Donor 3 IFN-γ [1] | IFN-γ production [1] | number of donors with significant levels of IFN-γ [1] | Donor 1 CFSE [2] | number of donors with positive T cell proliferative response [2] | Donor 2 CFSE [2] | donors that gave positive / significant T cell response [2] | Observed in Isotypes [3] |
| --- | --- | --- | --- | --- | --- | --- | --- | --- | --- | --- | --- | --- | --- | --- | --- |
| QYIKANSKFIGITEL (TT-derived peptide) [Peptide P2, reference compound] | * (key: * p < 0.05; ** p < 0.005; *** p < 0.0005) | did not show increased proliferation; also recorded: did not show significant proliferation | * (key: * p < 0.05; ** p < 0.005; *** p < 0.0005) | *** (key: * p < 0.05; ** p < 0.005; *** p < 0.0005) | no significant response | – | – | – | – | – | – | – | – | – | – |
| GYVDSIQKGIQKPK (CRM-derived peptide) [CRM26-39] | *** (key: * p < 0.05; ** p < 0.005; *** p < 0.0005) | increased proliferation | * (key: * p < 0.05; ** p < 0.005; *** p < 0.0005) | *** (key: * p < 0.05; ** p < 0.005; *** p < 0.0005) | – | ** (key: * p < 0.05; ** p < 0.005; *** p < 0.0005) | ** (key: * p < 0.05; ** p < 0.005; *** p < 0.0005) | * (key: * p < 0.05; ** p < 0.005; *** p < 0.0005) | significant levels of IFN-γ response; also recorded: significant production of IFN-γ | at least three | * (key: * p < 0.05; ** p < 0.005; *** p < 0.0005) | three | – | – | – |
| LYNGLKFIIKR (TT-derived peptide) [TT1169-1179] | * (key: * p < 0.05; ** p < 0.005; *** p < 0.0005) | – | * (key: * p < 0.05; ** p < 0.005; *** p < 0.0005) | – | – | – | * (key: * p < 0.05; ** p < 0.005; *** p < 0.0005) | * (key: * p < 0.05; ** p < 0.005; *** p < 0.0005) | significant production of IFN-γ | at least three | * (key: * p < 0.05; ** p < 0.005; *** p < 0.0005) | three | *** (key: * p < 0.05; ** p < 0.005; *** p < 0.0005) | – | – |
| GLTKVLALKVD (CRM-derived peptide) [CRM87-97] | ** (key: * p < 0.05; ** p < 0.005; *** p < 0.0005) | not significant compared to basal growth rate | ** (key: * p < 0.05; ** p < 0.005; *** p < 0.0005) | *** (key: * p < 0.05; ** p < 0.005; *** p < 0.0005) | – | * (key: * p < 0.05; ** p < 0.005; *** p < 0.0005) | ** (key: * p < 0.05; ** p < 0.005; *** p < 0.0005) | *** (key: * p < 0.05; ** p < 0.005; *** p < 0.0005) | significant levels of IFN-γ response; also recorded: significant production of IFN-γ | at least three | – | – | – | Donors 3 and 4 | – |
| CKALNPKEIE (TT-derived peptide) [TT1093-1102] | * (key: * p < 0.05; ** p < 0.005; *** p < 0.0005) | not significant compared to basal growth rate | ** (key: * p < 0.05; ** p < 0.005; *** p < 0.0005) | *** (key: * p < 0.05; ** p < 0.005; *** p < 0.0005) | – | * (key: * p < 0.05; ** p < 0.005; *** p < 0.0005) | * (key: * p < 0.05; ** p < 0.005; *** p < 0.0005) | ** (key: * p < 0.05; ** p < 0.005; *** p < 0.0005) | significant levels of IFN-γ response; also recorded: significant production of IFN-γ | at least three | – | – | – | Donors 3 and 4 | pulled down in the -DQ IP; also recorded: DR, DQ |
| DRILRVGYNAPGIPL (TT-derived peptide) [TT1222-1236] | – | – | – | * (key: * p < 0.05; ** p < 0.005; *** p < 0.0005) | – | – | *** (key: * p < 0.05; ** p < 0.005; *** p < 0.0005) | – | significant production of IFN-γ | – | * (key: * p < 0.05; ** p < 0.005; *** p < 0.0005) | three | *** (key: * p < 0.05; ** p < 0.005; *** p < 0.0005) | – | – |
| GYNAPGIPLYKK (TT-derived peptide) [TT1228-1239] | ** (key: * p < 0.05; ** p < 0.005; *** p < 0.0005) | – | ** (key: * p < 0.05; ** p < 0.005; *** p < 0.0005) | *** (key: * p < 0.05; ** p < 0.005; *** p < 0.0005) | – | – | – | ** (key: * p < 0.05; ** p < 0.005; *** p < 0.0005) | – | – | – | – | – | Donors 3 and 4 | – |
| KTTAALSILPGIGS (CRM-derived peptide) [CRM299-312] | ** (key: * p < 0.05; ** p < 0.005; *** p < 0.0005) | increased proliferation | ** (key: * p < 0.05; ** p < 0.005; *** p < 0.0005) | *** (key: * p < 0.05; ** p < 0.005; *** p < 0.0005) | – | * (key: * p < 0.05; ** p < 0.005; *** p < 0.0005) | ** (key: * p < 0.05; ** p < 0.005; *** p < 0.0005) | * (key: * p < 0.05; ** p < 0.005; *** p < 0.0005) | significant levels of IFN-γ response; also recorded: significant production of IFN-γ | at least three | *** (key: * p < 0.05; ** p < 0.005; *** p < 0.0005) | four | *** (key: * p < 0.05; ** p < 0.005; *** p < 0.0005) | – | pulled down in the HLA-DP specific immunoprecipitation; also recorded: pulled down in the -DQ IP; also recorded: identified through the -DR IP; also recorded: DR, DP, DQ |
| KFIIKRYTPNNEIDSF (TT-derived peptide) [Peptide P32, reference compound] | * (key: * p < 0.05; ** p < 0.005; *** p < 0.0005) | – | ** (key: * p < 0.05; ** p < 0.005; *** p < 0.0005) | *** (key: * p < 0.05; ** p < 0.005; *** p < 0.0005) | no significant response | – | ** (key: * p < 0.05; ** p < 0.005; *** p < 0.0005) | ** (key: * p < 0.05; ** p < 0.005; *** p < 0.0005) | – | – | – | – | *** (key: * p < 0.05; ** p < 0.005; *** p < 0.0005) | – | – |
| LFNRIKNNVAGEAL (TT-derived peptide) [TT94-107] | * (key: * p < 0.05; ** p < 0.005; *** p < 0.0005) | increased proliferation | *** (key: * p < 0.05; ** p < 0.005; *** p < 0.0005) | ** (key: * p < 0.05; ** p < 0.005; *** p < 0.0005) | – | – | ** (key: * p < 0.05; ** p < 0.005; *** p < 0.0005) | ** (key: * p < 0.05; ** p < 0.005; *** p < 0.0005) | significant production of IFN-γ | at least three | – | three | *** (key: * p < 0.05; ** p < 0.005; *** p < 0.0005) | – | – |
| NFIGALET (TT-derived peptide) [TT660-667] | * (key: * p < 0.05; ** p < 0.005; *** p < 0.0005) | – | ** (key: * p < 0.05; ** p < 0.005; *** p < 0.0005) | *** (key: * p < 0.05; ** p < 0.005; *** p < 0.0005) | – | * (key: * p < 0.05; ** p < 0.005; *** p < 0.0005) | – | * (key: * p < 0.05; ** p < 0.005; *** p < 0.0005) | significant levels of IFN-γ response | at least three | – | – | – | Donors 3 and 4 | – |
| NILMQYIKANSK (TT-derived peptide) [TT826-837] | – | no significant response | – | – | – | – | – | * (key: * p < 0.05; ** p < 0.005; *** p < 0.0005) | – | – | – | one | – | – | – |
| TPLPIAGVLLPTIPGK (CRM-derived peptide) [CRM425-440] | *** (key: * p < 0.05; ** p < 0.005; *** p < 0.0005) | increased proliferation | ** (key: * p < 0.05; ** p < 0.005; *** p < 0.0005) | *** (key: * p < 0.05; ** p < 0.005; *** p < 0.0005) | – | – | ** (key: * p < 0.05; ** p < 0.005; *** p < 0.0005) | ** (key: * p < 0.05; ** p < 0.005; *** p < 0.0005) | significant production of IFN-γ | at least three | – | three | *** (key: * p < 0.05; ** p < 0.005; *** p < 0.0005) | Donors 2,3, and 4 | pulled down in the -DQ IP; also recorded: DR, DQ |
